pIC50: −log10 of the molar value.
Legend:
HSV-1 protease = target: T1, HSV-1 protease (Human herpesvirus 1, UniProt P10210); assay: Enzymatic assay for HSV-1 protease (assembly) inhibitor, fluorescence polarization; format: biochemical; settings: read-out: HSV-1 Enzyme inhibition IC50
T1 construct: 6xHis (N); made in house; host or cells: baculovirus expression system
In short: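 Fluorescence polarization read-out: after avidin stop, cleavage of a biotinylated DTAF-labelled release-site peptide by recombinant N-His6 HSV-1 protease was compared with no-inhibitor wells. Enzyme and compound were preincubated 30 min, then substrate reacted 60 min, all at room temperature, pH 7.4 citrate buffer with TCEP.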

HSV-1 = assay: Antiviral activity, HSV-1 in Vero cells, plaque method; format: cell-based; settings: Human alphaherpesvirus 1, 20 hours, 90% inhibition of plaque formation
In short: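 This is a virus-yield read-out. The culture medium was frozen at −80° C and thawed, and the plaques it formed were counted. It came from Vero monolayers infected with 50,000 pfu HSV-1 and then exposed to the compound for 20 h at 37° C. EC90 is the concentration inhibiting 90% of plaque formation relative to the untreated infected control.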

Vero cells = assay: Cytotoxicity, Vero cells, Alamar Blue; format: cell-based; settings: 25 μM, 20 hours
In short: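 Living-cell ratio versus untreated control was read by Alamar Blue absorbance after about 6 h of dye incubation. Before that, Vero cells had received 25 μM test compound in 2% FBS-DMEM for 20 hours at 37 °C under 5% CO2.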

Human plasma stability = format: in vitro ADME
Description: An Assay Method for Human Plasma Stability Human plasma was thawed, 200 μl each thereof was placed in each cell of a 96-well plate immediately thereafter, and 4 μl of solution of each test compound in 1 mM DMF was added thereto. A microplate reader for fluorescence absorption was used to assay changes in fluorescence, and half life was determined based on the changes.

[1] = tested on: HSV1 DNA polymerase variant; assay: Antiviral activity 2, plaque formation in HEL cells; format: cell-based, HSV-1; settings: Human alphaherpesvirus 1, HEL, 72 h, read-out: Antiviral activity: IC50, HSV1 DNA polymerase variant
Description: (§1) An Assay Method for Antiviral Activity 2
(§2) The HEL cells were sowed on a 48-well plate and then cultured overnight. The culture supernatant was removed, and 100 μl of 2% FBS-DMEM containing 40 Plaque-forming units of HSV-1, HSV-2, VZV, or CMV was added. A viral solution Was removed 1 hour later, and 500 μl of 2% FBS-DMEM containing 0.5% methylcellulose comprising 50, 25, 12.5, 6.3, 3.2, or 1.6 μM of the test compound was added. In this case, a substance to which 2% FBS-DMEM containing 0.5% methylcellulose not comprising any test compound had been added was designated as a control. In the case of HSV-1, HSV-2, or VZV, incubation was carried out in the presence of 5% CO2 at 37° C. for 3 days. In the case of CMV, incubation was carried out under the same conditions for 14 days. After they were immobilized on formalin and stained with bromophenol blue, the amount of plaque formed was counted, and the ratio of plaque formation of the drug-containing reaction system relative to the control was determined. The concentration of the drug with which the ratio of plaque formation reaches 50% was calculated and determined to be IC50. Concerning HSV-1, an aciclovir-resistant thymidine kinase variant and a DNA polymerase variant were examined in addition to a general aciclovir-sensitive strain.

HSV1 Sensitive strain = assay: as above; format: cell-based, HSV-1; settings: Human alphaherpesvirus 1, 72 h, 3 days
Description: as §1, §2

[2] = tested on: HSV1 Thimidine kinase variant; assay: as above; format: cell-based, HSV-1; settings: Human alphaherpesvirus 1, HEL, 72 h, read-out: Antiviral activity: IC50, HSV1 Thimidine kinase variant
Description: as §1, §2

HSV2 = assay: as above; format: cell-based, HSV-2; settings: Human alphaherpesvirus 2, 72 h, 3 days
Description: as §1, §2

VZV = assay: as above; format: cell-based; settings: Human alphaherpesvirus 3, 72 h, 3 days
Description: as §1, §2

HCMV = assay: as above; format: cell-based, CMV; settings: Human betaherpesvirus 5, 336 h, 14 days
Description: as §1, §2

T1 sequence (P10210 1-247): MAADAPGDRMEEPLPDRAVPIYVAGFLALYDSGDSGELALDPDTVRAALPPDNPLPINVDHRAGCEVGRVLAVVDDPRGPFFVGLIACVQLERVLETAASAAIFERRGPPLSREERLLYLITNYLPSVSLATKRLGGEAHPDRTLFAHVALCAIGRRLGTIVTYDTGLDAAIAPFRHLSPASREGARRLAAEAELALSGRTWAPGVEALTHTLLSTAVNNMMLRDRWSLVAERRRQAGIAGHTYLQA

Row | SMILES | pIC50 (HSV-1 protease) | EC90 (HSV-1) [µM] | Cell viability (% of control) (Vero cells) [%] | half-life at 19.6 μM (Human plasma stability) [h] | pIC50 [1] | pIC50 (HSV1 Sensitive strain) | pIC50 [2] | pIC50 (HSV2) | pIC50 (VZV) | pIC50 (HCMV)
1 | Cc1c(NC(=O)OC(C)(C)C)ccc2nc(N[C@@H](Cc3ccccc3)C(=O)N(C)CCc3ccccn3)oc(=O)c12 [Compound No.21, (5-Methyl-2-{1-[methyl-1S-(2-pyridin-2-yl-ethyl)-carbamoyl]-2-phenyl-ethylamino}-4-oxo-4H-benzo[d][1,3]oxazin-6-yl)-carbamic Acid Tert-Butyl Ester] | 5.82 | 5.9 | 53.2 | 1.78 | 5.16 | 5.21 | 4.79 | 4.97 | 5.19 | < 5.30
2 | Cc1c(NC(=O)OC(C)(C)C)ccc2nc(N(C)[C@@H](Cc3ccccc3)C(=O)NCc3ccccn3)oc(=O)c12 [Compound No.22, [5-Methyl-2-(methyl-{2-phenyl-1S-[(pyridin-2-ylmethyl)-carbamoyl]-ethyl}-amino)-4-oxo-4H-benzo[d][1,3]oxazin-6-yl]-carbamic Acid Tert-Butyl Ester] | 5.74 | 9 | 66.5 | 3.02 | 4.84 | 5.02 | 4.79 | 4.78 | < 4.60 | < 4.60
3 | Cc1c(NC(=O)OC(C)(C)C)ccc2nc(N[C@@H](CCc3ccccc3)C(=O)N(C)Cc3ccccn3)oc(=O)c12 [Compound No.23, {5-Methyl-2-[1S-(methyl-pyridin-2-ylmethyl-carbamoyl)-3-phenyl-propylamino]-4-oxo-4H-benzo[d][1,3]oxazin-6-yl}-carbamic Acid Tert-Butyl Ester] | 6.15 | < 3.2 | 52.0 | 9.92 | – | – | – | – | – | –
4 | Cc1c(NC(=O)OC(C)(C)C)ccc2nc(N[C@@H](C)C(=O)N(C)Cc3ccccn3)oc(=O)c12 [Compound No.58, {5-Methyl-2-[1S-(methyl-pyridin-2-ylmethyl-carbamoyl)-ethylamino]-4-oxo-4H-benzo[d][1,3]oxazin-6-yl}-carbamic acid tert-butyl ester] | 5.77 | 10.8 | 105.0 | 8.85 | – | – | – | – | – | –
5 | Cc1c(NC(=O)OC(C)(C)C)ccc2nc(NC(C)(C)C(=O)N(C)Cc3ccccn3)oc(=O)c12 [Compound No.59, {5-Methyl-2-[1-methyl-1-(methyl-pyridin-2-ylmethyl-carbamoyl)-ethylamino]-4-oxo-4H-benzo[d][1,3]oxazin-6-yl}-carbamic acid tert-butyl ester] | 5.96 | 10.1 | 106.0 | 5.13 | – | – | – | – | – | –
6 | Cc1c(NC(=O)OC(C)(C)C)ccc2nc(N[C@@H](C)C(=O)N(C)CCc3cccnc3)oc(=O)c12 [Compound No.65, (5-Methyl-2-{1S-[methyl-(2-pyridin-3-yl-ethyl)-carbamoyl]-ethylamino}-4-oxo-4H-benzo[d][1,3]oxazin-6-yl)-carbamic acid tert-butyl ester] | 6.70 | 7.6 | 104.0 | 3.02 | – | – | – | – | – | –
7 | Cc1c(NC(=O)OC(C)(C)C)ccc2nc(NC3(C(=O)N(C)CCc4ccncc4)CCCCC3)oc(=O)c12 [Compound No.129, (5-Methyl-2-{1-[methyl-(2-pyridin-4-yl-ethyl)-carbamoyl]-cyclohexylamino}-4-oxo-4H-benzo[d][1,3]oxazin-6-yl)-carbamic acid tert-butyl ester] | 5.96 | 5.8 | – | > 15 | 5.06 | 5.24 | 4.75 | 4.99 | < 5.30 | < 5.30

Reference: patent US20040116420A1 (priority 2001, published 2004)
